Patent US20240158392A1 (Janssen Biotech, Inc., priority 2021, published 2024)

Tests used:
SIK2 [1] = target: T1, SIK2 (Homo sapiens, UniProt Q9H0K1); assay: SIK2 Enzymatic Assay High Version 2 (High ATP); assay type: biochemical
Outline: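 At room temperature, enzyme (6 nM, 2× final) was preincubated with compound for 30 min, then 6 mM ATP and 400 μM HDAC5tide (both 2× final) were added for 2 h. ADP formed was measured by ADP-Glo Max (2 h reagent, 1 h detection) using luminescence.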

SIK2 [2] = target: T1, SIK2; assay: SIK2 Enzymatic Assay Version 1 (ADP Glo); assay type: biochemical; details: enzyme 0.6 nM, 160 μM ATP and 140 μM HDAC5tide (each 2× final concentration); 30 minutes pre-incubation, 4 hours; ADPGlo luminescence; read-out: SIK2 ADP Glo IC50 (μM) (Test Example 1)
Outline: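 Kinase activity read as ADP production by ADP-Glo luminescence, all steps at room temperature. Compound and SIK2 (0.6 nM, a 2× concentration) were preincubated 30 min; ATP-only wells lacking peptide were the negative control; depletion 40 min, detection ≥30 min.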

T1 sequence (Q9H0K1 whole entry, species assumed): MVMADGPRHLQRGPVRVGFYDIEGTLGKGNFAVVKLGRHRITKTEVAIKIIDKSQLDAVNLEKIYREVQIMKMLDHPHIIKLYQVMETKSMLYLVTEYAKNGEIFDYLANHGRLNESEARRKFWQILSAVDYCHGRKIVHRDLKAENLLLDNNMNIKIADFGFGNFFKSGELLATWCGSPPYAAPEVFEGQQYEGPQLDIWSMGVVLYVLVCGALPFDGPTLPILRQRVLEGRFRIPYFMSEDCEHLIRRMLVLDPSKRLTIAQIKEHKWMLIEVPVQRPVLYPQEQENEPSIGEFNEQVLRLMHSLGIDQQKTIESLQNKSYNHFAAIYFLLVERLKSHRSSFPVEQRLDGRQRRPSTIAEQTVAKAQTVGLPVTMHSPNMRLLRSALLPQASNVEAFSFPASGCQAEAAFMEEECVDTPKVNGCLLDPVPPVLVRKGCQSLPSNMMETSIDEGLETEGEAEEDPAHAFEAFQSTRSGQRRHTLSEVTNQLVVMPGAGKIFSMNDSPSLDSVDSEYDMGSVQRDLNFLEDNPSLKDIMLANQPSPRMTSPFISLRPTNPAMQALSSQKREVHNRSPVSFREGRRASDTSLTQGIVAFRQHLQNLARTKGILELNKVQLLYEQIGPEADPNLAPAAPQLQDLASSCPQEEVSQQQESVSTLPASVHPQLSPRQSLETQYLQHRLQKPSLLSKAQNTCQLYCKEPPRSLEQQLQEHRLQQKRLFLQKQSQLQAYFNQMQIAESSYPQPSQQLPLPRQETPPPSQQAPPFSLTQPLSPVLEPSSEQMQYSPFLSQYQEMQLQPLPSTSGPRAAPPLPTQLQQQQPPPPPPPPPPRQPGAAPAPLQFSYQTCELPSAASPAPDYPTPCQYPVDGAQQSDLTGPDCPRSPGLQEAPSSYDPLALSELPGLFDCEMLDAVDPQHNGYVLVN

IC50 (SIK2 [1]) [nM]	IC50 (SIK2 [2]) [µM]	Compound
13.5	0.000641	N#Cc1cc(-c2ccn3nc(NC(=O)C4CC4)cc3c2)c(OC[C@H]2CC[C@H](O)CC2)cn1 [Example 53, trans-N-(5-(2-Cyano-5-(((1r,4r)-4-hydroxycyclohexyl)methoxy)pyridin-4-yl)pyrazolo[1,5-a]pyridin-2-yl)cyclopropanecarboxamide]
98.6	0.00492	CC(=O)N1CCC(COc2cnc(C#N)cc2-c2ccn3nc(NC(=O)C4CC4)cc3c2)CC1 [Example 60, N-[5-[5-[(1-acetyl-4-piperidyl)methoxy]-2-cyano-4-pyridyl]pyrazolo[1,5-a]pyridin-2-yl]cyclopropanecarboxamide]
78.6	0.00426	C[C@H](O)COc1cnc(C#N)cc1-c1ccn2nc(NC(=O)C3CC3)cc2c1 [Example 63, N-[5-[2-cyano-5-[(2S)-2-hydroxypropoxy]-4-pyridyl]pyrazolo[1,5-a]pyridin-2-yl]cyclopropanecarboxamide]
8.63	0.000387	N#Cc1cc(-c2ccn3nc(NC(=O)C4CC4)cc3c2)c(O[C@H]2CC[C@H](O)CC2)cn1 [Example 64, N-[5-[2-cyano-5-(4-hydroxycyclohexoxy)-4-pyridyl]pyrazolo[1,5-a]pyridin-2-yl]cyclopropanecarboxamide]
8.63	0.000631	N#Cc1cc(-c2ccn3nc(NC(=O)C4CC4)cc3c2)c(OC[C@@H]2C[C@H]3CC[C@@H](C2)N3)cn1 [Example 67, N-[5-[5-[[(1S,5R)-8-azabicyclo[3.2.1]octan-3-yl]methoxy]-2-cyano-4-pyridyl]pyrazolo[1,5-a]pyridin-2-yl]cyclopropanecarboxamide]
24	0.000666	N#Cc1cc(-c2ccn3nc(NC(=O)C4CC4)cc3c2)c(OC[C@H]2C[C@@H](O)C2)cn1 [Example 68, N-[5-[2-cyano-5-[(3-hydroxycyclobutyl)methoxy]-4-pyridyl]pyrazolo[1,5-a]pyridin-2-yl]cyclopropanecarboxamide]
409	0.0208	N#Cc1cc(-c2ccn3nc(NC(=O)C4CC4)cc3c2)c(N2CC(O)C2)cn1 [Example 70, N-[5-[2-cyano-5-(3-hydroxyazetidin-1-yl)-4-pyridyl]pyrazolo[1,5-a]pyridin-2-yl]cyclopropanecarboxamide]
278	0.0154	CC(C)(O)CNc1cnc(C#N)cc1-c1ccn2nc(NC(=O)C3CC3)cc2c1 [Example 81, N-[5-[2-cyano-5-[(2-hydroxy-2-methyl-propyl)amino]-4-pyridyl]pyrazolo[1,5-a]pyridin-2-yl]cyclopropanecarboxamide]
56.7	0.00299	CN1[C@@H]2CC[C@H]1C[C@@H](COc1cnc(C#N)cc1-c1ccn3nc(NC(=O)C4CC4)cc3c1)C2 [Example 83, N-(5-(2-cyano-5-(((1R,3R,5S)-8-methyl-8-azabicyclo[3.2.1]octan-3-yl)methoxy)pyridin-4-yl)pyrazolo[1,5-a]pyridin-2-yl)cyclopropanecarboxamide]
50.7	0.00256	CN1CCC(Oc2cnc(C#N)cc2-c2ccn3nc(NC(=O)C4CC4)cc3c2)CC1 [Example 85, N-[5-[2-cyano-5-[(1-methyl-4-piperidyl)oxy]-4-pyridyl]pyrazolo[1,5-a]pyridin-2-yl]cyclopropanecarboxamide]
2.76	0.000204	N#Cc1cc(-c2ccn3nc(NC(=O)C4CC4)cc3c2)c(O[C@H]2CC[C@@H](O)CC2)cn1 [Example 86, N-(5-(2-cyano-5-(((1s,4s)-4-hydroxycyclohexyl)oxy)pyridin-4-yl)pyrazolo[1,5-a]pyridin-2-yl)cyclopropanecarboxamide]
51.1	0.00298	CN1CCC[C@@H](Oc2cnc(C#N)cc2-c2ccn3nc(NC(=O)C4CC4)cc3c2)C1 [Example 88, (R)—N-(5-(2-cyano-5-((1-methylpiperidin-3-yl)oxy)pyridin-4-yl)pyrazolo[1,5-a]pyridin-2-yl)cyclopropanecarboxamide]
3.04	0.000299	C[C@]1(O)CC[C@@H](Oc2cnc(C#N)cc2-c2ccn3nc(NC(=O)C4CC4)cc3c2)CC1 [Example 89]
< 0.838	0.00013	N#Cc1cc(-c2ccn3nc(NC(=O)C4CC4)cc3c2)c(OC2C[C@H]3COC[C@@H](C2)N3)cn1 (stereo partly drawn) [Example 92, (3-endo)-N-[5-[2-cyano-5-[[(1R,5S)-3-oxa-9-azabicyclo[3.3.1]nonan-7-yl]oxy]-4-pyridyl]pyrazolo[1,5-a]pyridin-2-yl]cyclopropanecarboxamide]
1250	0.0359	CC1(C)CC(Oc2cnc(C#N)cc2-c2ccn3nc(NC(=O)C4CC4)cc3c2)CC(C)(C)N1 [Example 93, N-[5-[2-cyano-5-[(2,2,6,6-tetramethyl-4-piperidyl)oxy]-4-pyridyl]pyrazolo[1,5-a]pyridin-2-yl]cyclopropanecarboxamide]
167	0.00847	C[C@@H](O)COc1cnc(C#N)cc1-c1ccn2nc(NC(=O)C3CC3)cc2c1 [Example 94, N-[5-[2-cyano-5-[(2R)-2-hydroxypropoxy]-4-pyridyl]pyrazolo[1,5-a]pyridin-2-yl]cyclopropanecarboxamide]
2.58	0.000435	N#Cc1cc(-c2ccn3nc(NC(=O)C4CC4)cc3c2)c(O[C@@H]2CNC[C@H](C(F)(F)F)C2)cn1 [Example 95, N-[5-[2-cyano-5-[[(3S,5R)-5-(trifluoromethyl)-3-piperidyl]oxy]-4-pyridyl]pyrazolo[1,5-a]pyridin-2-yl]cyclopropanecarboxamide]
16	0.000912	N#Cc1cc(-c2ccn3nc(NC(=O)C4CC4)cc3c2)c(OC[C@@H](O)C(F)(F)F)cn1 [Example 96, N-[5-[2-cyano-5-[(2R)-3,3,3-trifluoro-2-hydroxy-propoxy]-4-pyridyl]pyrazolo[1,5-a]pyridin-2-yl]cyclopropanecarboxamide]
114	0.00609	N#Cc1cc(-c2ccn3nc(NC(=O)C4CC4)cc3c2)c(OC[C@H](O)C(F)(F)F)cn1 [Example 97, N-[5-[2-cyano-5-[(2S)-3,3,3-trifluoro-2-hydroxy-propoxy]-4-pyridyl]pyrazolo[1,5-a]pyridin-2-yl]cyclopropanecarboxamide]

Compound	IC50 (SIK2 [1]) [nM]	IC50 (SIK2 [2]) [µM]
CN1[C@@H]2CC[C@H]1C[C@@H](Oc1cnc(C#N)cc1-c1ccn3nc(NC(=O)C4CC4)cc3c1)C2 [Example 66, N-[5-[2-cyano-5-[[(1S,5R)-8-methyl-8-azabicyclo[3.2.1]octan-3-yl]oxy]-4-pyridyl]pyrazolo[1,5-a]pyridin-2-yl]cyclopropanecarboxamide]	8.5	0.000561
N#Cc1cc(-c2ccn3nc(NC(=O)C4CC4)cc3c2)c(O[C@H]2C[C@@H](CO)C2)cn1 [Example 69, N-[5-[2-cyano-5-[3-(hydroxymethyl)cyclobutoxy]-4-pyridyl]pyrazolo[1,5-a]pyridin-2-yl]cyclopropanecarboxamide]	38.3	0.0028
N#Cc1cc(-c2ccn3nc(NC(=O)C4CC4)cc3c2)c(O[C@H]2C[C@H]3CC[C@@H](C2)N3)cn1 [Example 82, (3-endo)-N-(5-(5-(((1R,3r,5S)-8-azabicyclo[3.2.1]octan-3-yl)oxy)-2-cyanopyridin-4-yl)pyrazolo[1,5-a]pyridin-2-yl)cyclopropanecarboxamide]	5.07	0.000268
